Publication PMC8548882, “The Trp-rich Antimicrobial Amphiphiles With Intramolecular Aromatic Interactions for the Treatment of Bacterial Infection” (Frontiers in Microbiology, 2021)
Ends that are not written are not given here.

Legend:
[1] = system: human red blood cells (hRBCs); assay: Hemolytic activity; assay type: cell-based; details: hRBC; ratio of MHC to GM
Text: The hemolytic activity of peptides was reflected by the releasing amount of hemoglobin from erythrocytes lysis induced by peptides ([Dong et al., 2014a]). The informed consent was obtained from the volunteers (3 healthy 25-year-old male volunteers) before the experiment. In brief, the human red blood cells (hRBCs), donated by volunteer, were collected, washed, and resuspended in PBS at pH 7.2. The peptides were serially diluted in PBS at different concentrations in a 96-well cell cultures plate and incubated with 50μl hRBCs for 1h at 37°C. The 0.1% Trition X-100 was selected as the treatment of positive control and the negative control was the hRBCs treated with PBS. After 1h incubation, the supernatant, obtained by centrifuging the plate 1,000g for 5min, was transferred to a brand-new plate for absorbance detection at 570nm. The releasing amount of hemoglobin was converted to the percent hemolysis against to 0.1% Triton X-100 treatment. The lowest concentration caused 5% hemolysis of hRBCs and was defined as the lowest hemolytic concentration of antimicrobial peptide.

[2] = system: Pseudomonas aeruginosa ATCC 27853; assay: Subcutaneous abscess model
Description: The in vivo antimicrobial performance of peptides was assessed by the treatment effect of the subcutaneous bacterial abscess model ([Pletzer et al., 2017]). In brief, 24 female ICR mice (weighted 18–20g, WeiTonglihua Co., Ltd. (Beijing)) were divided into four groups and each group contained 6 mice (n=6). […] Then, the Pseudomonas aeruginosa ATCC 27853 cells (100μl, 10^8CFU/ml) were injected into the subcutaneous layer of the dorsum skin. […] The non-infected mice served as a control, which was infected and treated with saline.
The therapeutic effect of peptides was further evaluated by colony counting, and the appearance and the level of inflammatory cytokine ([Tan et al., 2020]). The appearance of abscesses was taking photos and the area of dermonecrotic tissue was measured and calculated with calipers at Day 3. The infected skin on the back of the mouse was harvested entirely and homogenized with saline at Day 3. The homogenate of abscess was spread on the MHA plates and cultivated for 18–24h at 37°C. Then the bacterial colony was counted for data analysis. The serum was collected for proinflammatory cytokines (TNF-α, IL-1α, IL-1β, and IL-2) tests at Day 3. The cytokine levels were determined by commercial ELISA kits (Nanjing Jiancheng Bioengineering Institute, Nanjing, China).
The histopathology of abscesses lesions was further analyzed by hematoxylin/eosin (HE) staining (Aladdin, Shanghai, China). The tissue samples at Day 3 were excised and fixed in 4% paraformaldehyde solution. In addition, the cell nuclei were stained blue and the cytoplasm was stained pink.

P. aeruginosa ATCC 27853 = assay: Time-kill curve; assay type: cell-based, Pseudomonas aeruginosa ATCC 27853; details: 1×10^5CFU/ml, colony counting on MHA, mean of three assays
Description: The logarithmic phase bacterial cells (P. aeruginosa ATCC 27853 and S. aureus ATCC 29213) were harvested and diluted to 1×10^5CFU/ml ([Dou et al., 2017]). The testing peptides at different concentrations (1×MIC, 2×MIC, and 4×MIC) were challenged with bacteria at a series of time intervals (0, 5, 10, 30, 60, and 120min). Then the reaction system was diluted several times and plated on Mueller-Hinton agar (MHA, AoBoX, Shanghai, China) plates. The plates were incubated 24h at 37°C in order to count the bacterial colonies. The data were the means of three times independent assays.

[3] = system: P. aeruginosa ATCC 27853 cells; assay: Outer membrane permeabilization, NPN uptake; assay type: cell-based, Pseudomonas aeruginosa ATCC 27853
Description: The outer membrane permeabilization of peptides was observed by monitoring the fluorescence change of dye 1-N-phenylnaphthylamine (NPN; Dong et al., 2014c). The 10μm NPN (Sigma-Aldrich, Shanghai, China) was first incubated with the P. aeruginosa ATCC 27853 cells (OD600=0.2, suspended in 5mM HEPES buffer supplied with 5mM glucose) for 30min. Afterward, the mixture was subjected to the detection of fluorescence, which served as the background at the excitation wavelength (λ=350nm) and the emission wavelength (λ=420nm). Then the peptides with various concentrations (1μM, 2μM, 4μM, 8μM, 16μM, 32μM, and 64μM) were added into the mixture and the fluorescence was monitored until the value was tended to stable. The %NPN uptake against 10μg/ml polymyxin B was calculated to analyze the outer membrane permeability of peptides.

[4] = CD spectrum, secondary structure; assay type: physicochemical; details: 150μM peptide
Description: The circular dichroism (CD) spectrum was further determined by analysis the secondary structure of peptides in different membrane-mimic environments ([Dong et al., 2014b]). The two totally different mimic environments were 10mM PBS and 50% TFE solution and the final concentration of peptides was fixed at 150μM Then the samples were transferred into a rectangular quartz cuvette (1mm path length) and further underwent the scanning of J-820 spectropolarimeter (Jasco, Tokyo, Japan) at the speed of 50nm/min. The wavelengths ranged from 190 to 250nm and were recorded to plot the observed ellipticity curve. The observed value at each time point was the average of three scans. The results were presented of mean residue ellipticity, which was calculated from the observed ellipticity as follows. θM=θobs⋅1000/(c⋅l⋅n); ([Zhu et al., 2014a])

S.typhimurium 7731 = assay type: cell-based, Salmonella enterica serovar typhimurium C77-31
Text: The tested strains were kindly provided by the laboratory of Veterinary Microbiology and Immunology, the College of Veterinary Medicine, Northeast Agricultural University (gram-negative bacteria, Salmonella enterica serovar typhimurium C77-31, Salmonella typhimurium ATCC 14028, Escherichia coli ATCC 25922, Pseudomonas aeruginosa ATCC 27853 and gram-positive bacteria, Staphylococcus aureus ATCC 29213, Staphylococcus aureus ATCC 43300, Staphylococcus epidermidis ATCC 12228, Staphylococcus aureus ATCC 25923).

HEK 293T cells = assay type: cell-based, human; details: ratio of IC50 to GM
Description: The MTT (3-[4,5 dimethylthiozol-2-yl]-2,5-diphenylterazoliumbromide) dye was selected to analyze the cytotoxicity of peptides against the murine macrophage cell RAW 264.7 (National Collection of Authenticated Cell Cultures, Shanghai, China), human embryonic kidneys (HK293T), and the porcine intestinal epithelial cells (IPEC-J2) as in our previously study ([Li et al., 2020]). In short, the cells (10^4 cells/well) were seeded into 96-well plates and were cultivated overnight. Then the peptides with different final concentration (2μM, 4μM, 8μM, 16μM, 32μM, 64μM, and 128μM) were introduced into the plate and challenged with cells for 24h. After overnight incubation, the 50μl MTT (0.5mg/ml) was added into the cell cultures for 4h. Then the plate was centrifuged to discard the supernatants and obtain the formazan crystals. The DMSO (dimethyl sulfoxide) was employed as a solvent to dissolve the formazan crystals on the bottom of the plate and the optical density was read at 492nm with a microplate reader.

[5] = system: P. aeruginosa ATCC 27853 cells; assay: Cytoplasmic membrane depolarization, diSC3-5; assay type: cell-based, Pseudomonas aeruginosa ATCC 27853; details: 1/2 MIC, 0s to 1,020s
Description: The cytoplasmic membrane depolarization of peptides was analyzed with membrane potential-sensitive dye DISC3-5 ([Ma et al., 2011]). First, 0.4μM DISC3-5 (Sigma-Aldrich, Shanghai, China) was incubated with the P. aeruginosa ATCC 27853 cells (OD600=0.05) suspended in 5mM HEPES buffer supplied with 20mM glucose for 1h. Then 100mMK^+ was introduced into the mixture for the reason of keeping K^+ concentration equilibration of bacterial cytoplasmic and extracellular conditions. Afterward, the peptides were reacted with the bacterial cells and the fluorescence value was tracked over time to plot the fluorescence curve (excitation λ=622nm, emission λ=670nm).

Substance: VKKWVKKWVKKWVKKW-NH2 [VW5]
- Therapeutic index (TI) [1]: > 76.19
- bacterial load in the abscess lesion ([2]; 5mg/kg intraperitoneally twice a day, Day 3, n=6): 12.72±2.26 ×10^9CFU/abscess
- IL-1β in serum ([2]; 5mg/kg, Day 3, ELISA, saline 95.99±4.31): 72.36 ± 4.15 pg/mL
- IL-1α in serum ([2]; 5mg/kg, Day 3, ELISA, saline 99.95±4.71): 79.82 ± 4.79 pg/mL
- TNF-α in serum ([2]; 5mg/kg, Day 3, ELISA, saline 1020.654±51.08): 756.62 ± 39.12 pg/mL
- IL-2 in serum ([2]; 5mg/kg, Day 3, ELISA, saline 1492.65±48.11): 1296.25 ± 150.86 pg/mL
- histological examination of abscess lesion, dermal tissue structures ([2]; 5mg/kg, HE staining, Day 3): relative integrity
- time to complete eradication of bacterial cells (P. aeruginosa ATCC 27853; 2×MIC): 10 min
- time to complete eradication of bacterial cells (P. aeruginosa ATCC 27853; 4×MIC): 30 min
- %NPN uptake against 10μg/ml polymyxin B ([3]; peptide 1μM): 9.49%
- %NPN uptake against 10μg/ml polymyxin B ([3]; peptide 64μM): 102.91%
- secondary structure (CD) ([4]; 10mM sodium phosphate buffer): unordered conformation
- secondary structure (CD) ([4]; 50% TFE): α-helical tendency
- MIC (S.typhimurium 7731): 1 µM
- Therapeutic index (TI) (HEK 293T cells): 5090.03
- cytoplasmic membrane depolarization, diSC3-5 fluorescence over time [5]: dose-dependent effect
